The values that follow come from ChEMBL document CHEMBL5370681, “Lipid Tales: Optimizing Arylomycin Membrane Anchors” (ACS Med Chem Lett, 2023).

≈ marks a conversion by molar mass, not a printed value.

By fraction unbound is commonly meant the share of the substance not bound to proteins or other matrix.

In data set [1] the target is Signal peptidase I (Escherichia coli K-12) (UniProt P00803). Nature of the data set: Inhibition of LepB in Escherichia coli IMP assessed as antibacterial activity by measuring reduction in bacterial growth incubated for 18 hrs by two-fold serial dilution method.
Chain of Signal peptidase I (Escherichia coli K-12) (P00803 whole entry): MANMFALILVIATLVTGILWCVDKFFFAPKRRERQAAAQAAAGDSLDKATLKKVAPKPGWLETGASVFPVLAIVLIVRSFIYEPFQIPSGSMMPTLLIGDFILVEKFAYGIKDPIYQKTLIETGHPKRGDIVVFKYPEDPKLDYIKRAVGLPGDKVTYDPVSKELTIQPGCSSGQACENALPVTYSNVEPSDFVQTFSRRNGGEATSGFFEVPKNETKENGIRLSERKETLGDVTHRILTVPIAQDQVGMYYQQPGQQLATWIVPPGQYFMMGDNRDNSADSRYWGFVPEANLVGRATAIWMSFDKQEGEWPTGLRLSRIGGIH
In data set [2] the test system is Escherichia coli. Nature of the data set: Antibacterial activity against Escherichia coli 25922 incubated for 18 hrs by two-fold serial dilution method. The class given is functional.
Data set [3] relates to Escherichia coli. Briefly: Antibacterial activity against Escherichia coli 25922 incubated for 18 hrs in presence of 50% mouse serum by two-fold serial dilution method. The class given is functional.
The nature of data set [4]: Unbound fraction in human plasma at 5 uM measured after 24 hrs by LC-MS/MS analysis. The class given is ADME, cell-free.

For the compound `C[C@@H]1NC(=O)[C@@H](N(C)C(=O)[C@H](CCN)NC(=O)c2ccc(-c3ccc(Cl)cc3)cc2)c2ccc(OCCN)c(c2)-c2cc(ccc2OCCN)C[C@@H](C(=O)NCC#N)NC1=O`, the results for the MIC (in data set [1]; in the data set with Escherichia coli [2]; in the data set on Escherichia coli [3]) were 0.022 µg/mL (≈ 0.0258 µM), 1.5 µg/mL (≈ 1.76 µM) and 3.8 µg/mL, respectively. In data set [4], the fraction unbound at 24 h, 5 µM was 0.2.
On to `CCCCCCCCCCCC(=O)N[C@@H](CCN)C(=O)N(C)[C@@H]1C(=O)N[C@@H](C)C(=O)N[C@H](C(=O)NCC#N)Cc2ccc(OCCN)c(c2)-c2cc1ccc2OCCN`, for which the MIC was 0.007 µg/mL (≈ 0.00854 µM) in data set [1], 0.98 µg/mL (≈ 1.2 µM) in the data set on Escherichia coli [2] and 7.5 µg/mL in the data set on Escherichia coli [3]. Besides, in data set [4], the fraction unbound at 24 h, 5 µM was found to be 0.03.
In the case of `Cc1cc(-c2ccc(C(C)(C)C)cc2)nc(C)c1C(=O)N[C@@H](CCN)C(=O)N(C)[C@@H]1C(=O)N[C@@H](C)C(=O)N[C@H](C(=O)NCC#N)Cc2ccc(OCCN)c(c2)-c2cc1ccc2OCCN`, the MIC in data set [1] turned out to be 0.004 µg/mL (≈ 0.00443 µM); in the data set with Escherichia coli [2] it was 0.18 µg/mL (≈ 0.199 µM); in the data set on Escherichia coli [3], 0.12 µg/mL. The fraction unbound at 24 h, 5 µM in data set [4] was found to be 0.083.
Turning to `C[C@@H]1NC(=O)[C@@H](N(C)C(=O)[C@H](CCN)NC(=O)c2ccc(-c3ccc(C(C)(C)C)cc3)nc2N)c2ccc(OCCN)c(c2)-c2cc(ccc2OCCN)C[C@@H](C(=O)NCC#N)NC1=O`, the results for the MIC (in data set [1]; against Escherichia coli [2]; with Escherichia coli [3]) were 0.011 µg/mL (≈ 0.0124 µM), 0.45 µg/mL (≈ 0.506 µM) and 0.89 µg/mL, respectively. Also, the fraction unbound at 24 h, 5 µM in data set [4] came to 0.063.
For the compound `Cc1nc(-c2ccc(C(C)(C)C)cc2)cc(N)c1C(=O)N[C@@H](CCN)C(=O)N(C)[C@@H]1C(=O)N[C@@H](C)C(=O)N[C@H](C(=O)NCC#N)Cc2ccc(OCCN)c(c2)-c2cc1ccc2OCCN`, the values for the MIC (in data set [1]; in the data set with Escherichia coli [2]; with Escherichia coli [3]) were 0.007 µg/mL (≈ 0.00774 µM), 0.12 µg/mL (≈ 0.133 µM) and 0.08 µg/mL, respectively.
On to `Cc1cc(-c2ccc(C(C)(C)C)cc2)ccc1C(=O)N[C@@H](CCN)C(=O)N(C)[C@@H]1C(=O)N[C@@H](C)C(=O)N[C@H](C(=O)NCC#N)Cc2ccc(OCCN)c(c2)-c2cc1ccc2OCCN`, for which the figures for the MIC (in data set [1]; with Escherichia coli [2]; in the data set on Escherichia coli [3]) were 0.011 µg/mL (≈ 0.0124 µM), 0.12 µg/mL (≈ 0.135 µM) and 0.44 µg/mL, respectively. Besides, the fraction unbound at 24 h, 5 µM in data set [4] was 0.001.
Consider `Cc1cc(-c2ccc(C(F)(F)F)cc2)ccc1C(=O)N[C@@H](CCN)C(=O)N(C)[C@@H]1C(=O)N[C@@H](C)C(=O)N[C@H](C(=O)NCC#N)Cc2ccc(OCCN)c(c2)-c2cc1ccc2OCCN`, for which the results for the MIC (in data set [1]; in the data set on Escherichia coli [2]; in the data set on Escherichia coli [3]) were 0.014 µg/mL (≈ 0.0156 µM), 0.41 µg/mL (≈ 0.456 µM) and 1.4 µg/mL, respectively. In data set [4], this compound came in with a fraction unbound at 24 h, 5 µM of 0.078.
Consider `Cc1cc(-c2ccc(C(C)(C)C)cc2)cc(C)c1C(=O)N[C@@H](CCN)C(=O)N(C)[C@@H]1C(=O)N[C@@H](C)C(=O)N[C@H](C(=O)NCC#N)Cc2ccc(OCCN)c(c2)-c2cc1ccc2OCCN`, for which the values for the MIC (in data set [1]; with Escherichia coli [2]; with Escherichia coli [3]) were 0.005 µg/mL (≈ 0.00554 µM), 0.17 µg/mL (≈ 0.188 µM) and 0.34 µg/mL, respectively.
As to `Cc1nc(-c2ccc(C(C)(C)C)cc2)nc(N)c1C(=O)N[C@@H](CCN)C(=O)N(C)[C@@H]1C(=O)N[C@@H](C)C(=O)N[C@H](C(=O)NCC#N)Cc2ccc(OCCN)c(c2)-c2cc1ccc2OCCN`, the MIC came out at 0.005 µg/mL (≈ 0.00552 µM) in data set [1], 0.11 µg/mL (≈ 0.122 µM) with Escherichia coli [2] and 0.11 µg/mL in the data set with Escherichia coli [3]. The same compound gave a fraction unbound at 24 h, 5 µM in data set [4] of 0.12.
Turning to `CCCCc1ccc(-c2ccc(C(=O)N[C@@H](CCN)C(=O)N(C)[C@@H]3C(=O)N[C@@H](C)C(=O)N[C@H](C(=O)NCC#N)Cc4ccc(OCCN)c(c4)-c4cc3ccc4OCCN)cc2)cc1`, the MIC in data set [1] was 0.016 µg/mL (≈ 0.0183 µM); in the data set with Escherichia coli [2], 0.2 µg/mL (≈ 0.229 µM); in the data set with Escherichia coli [3], 2.1 µg/mL.
Consider `Cc1nc(-c2ccc(C(C)(C)C)cc2)nc(C)c1C(=O)N[C@@H](CCN)C(=O)N(C)[C@@H]1C(=O)N[C@@H](C)C(=O)N[C@H](C(=O)NCC#N)Cc2ccc(OCCN)c(c2)-c2cc1ccc2OCCN`, for which the figures for the MIC (in data set [1]; against Escherichia coli [2]; in the data set with Escherichia coli [3]) were 0.003 µg/mL (≈ 0.00332 µM), 0.13 µg/mL (≈ 0.144 µM) and 0.17 µg/mL, respectively. The compound also gave a fraction unbound at 24 h, 5 µM in data set [4] of 0.22.
Turning to `CCCCCCCCCC(=O)N[C@@H](CCN)C(=O)N(C)[C@@H]1C(=O)N[C@@H](C)C(=O)N[C@H](C(=O)NCC#N)Cc2ccc(OCCN)c(c2)-c2cc1ccc2OCCN`, the MIC stood at 0.1 µg/mL (≈ 0.126 µM) in data set [1], 15 µg/mL (≈ 18.9 µM) with Escherichia coli [2] and 51 µg/mL in the data set on Escherichia coli [3].
Regarding `Cc1nc(-c2ccc(C(C)(C)C)cc2)ncc1C(=O)N[C@@H](CCN)C(=O)N(C)[C@@H]1C(=O)N[C@@H](C)C(=O)N[C@H](C(=O)NCC#N)Cc2ccc(OCCN)c(c2)-c2cc1ccc2OCCN`, the MIC in data set [1] was determined as 0.004 µg/mL (≈ 0.00449 µM); in the data set with Escherichia coli [2] it was 0.14 µg/mL (≈ 0.157 µM); in the data set with Escherichia coli [3], 0.2 µg/mL. The compound also came in with a fraction unbound at 24 h, 5 µM in data set [4] of 0.23.
Consider `Cc1cc(-c2ccc(C(C)C)cc2)ccc1C(=O)N[C@@H](CCN)C(=O)N(C)[C@@H]1C(=O)N[C@@H](C)C(=O)N[C@H](C(=O)NCC#N)Cc2ccc(OCCN)c(c2)-c2cc1ccc2OCCN`, for which the MIC came out at 0.007 µg/mL (≈ 0.00801 µM) in data set [1], 0.15 µg/mL (≈ 0.172 µM) against Escherichia coli [2] and 0.96 µg/mL in the data set with Escherichia coli [3]. In addition, the fraction unbound at 24 h, 5 µM in data set [4] worked out at 0.086.
As for `CCc1ccc(-c2ccc(C(=O)N[C@@H](CCN)C(=O)N(C)[C@@H]3C(=O)N[C@@H](C)C(=O)N[C@H](C(=O)NCC#N)Cc4ccc(OCCN)c(c4)-c4cc3ccc4OCCN)c(C)c2)cc1`, the MIC in data set [1] amounted to 0.008 µg/mL (≈ 0.0093 µM); against Escherichia coli [2], 0.31 µg/mL (≈ 0.36 µM); in the data set with Escherichia coli [3] it was 0.75 µg/mL. The same compound yielded a fraction unbound at 24 h, 5 µM in data set [4] of 0.053.
`CC(C)CCc1ccc(-c2ccc(C(=O)N[C@@H](CCN)C(=O)N(C)[C@@H]3C(=O)N[C@@H](C)C(=O)N[C@H](C(=O)NCC#N)Cc4ccc(OCCN)c(c4)-c4cc3ccc4OCCN)cc2)cc1`: the results for the MIC (in data set [1]; in the data set on Escherichia coli [2]; in the data set with Escherichia coli [3]) were 0.015 µg/mL (≈ 0.0169 µM), 0.18 µg/mL (≈ 0.203 µM) and 3.8 µg/mL, respectively.
As for `C[C@@H]1NC(=O)[C@@H](N(C)C(=O)[C@H](CCN)NC(=O)c2cnc(-c3ccc(C(C)(C)C)cc3)cc2N)c2ccc(OCCN)c(c2)-c2cc(ccc2OCCN)C[C@@H](C(=O)NCC#N)NC1=O`, the MIC in data set [1] was 0.011 µg/mL (≈ 0.0124 µM); with Escherichia coli [2], 0.22 µg/mL (≈ 0.247 µM); in the data set with Escherichia coli [3] it was 0.34 µg/mL.
Take `CCCCCCCCCCCCCC(=O)N[C@@H](CCN)C(=O)N(C)[C@@H]1C(=O)N[C@@H](C)C(=O)N[C@H](C(=O)NCC#N)Cc2ccc(OCCN)c(c2)-c2cc1ccc2OCCN`: the figures for the MIC (in data set [1]; with Escherichia coli [2]; in the data set on Escherichia coli [3]) were 0.014 µg/mL (≈ 0.0165 µM), 0.24 µg/mL (≈ 0.283 µM) and 3.8 µg/mL, respectively.
As to `CCCCCCCCC(=O)N[C@@H](CCN)C(=O)N(C)[C@@H]1C(=O)N[C@@H](C)C(=O)N[C@H](C(=O)NCC#N)Cc2ccc(OCCN)c(c2)-c2cc1ccc2OCCN`, the MIC was found to be 0.12 µg/mL (≈ 0.154 µM) in data set [1], 23 µg/mL (≈ 29.6 µM) against Escherichia coli [2] and 61 µg/mL in the data set with Escherichia coli [3].
With `Cc1nc(-c2ccc(C(C)(C)C)cc2)ccc1C(=O)N[C@@H](CCN)C(=O)N(C)[C@@H]1C(=O)N[C@@H](C)C(=O)N[C@H](C(=O)NCC#N)Cc2ccc(OCCN)c(c2)-c2cc1ccc2OCCN`, the MIC in data set [1] stood at 0.004 µg/mL (≈ 0.0045 µM); in the data set on Escherichia coli [2], 0.12 µg/mL (≈ 0.135 µM); in the data set on Escherichia coli [3], 0.12 µg/mL.
Turning to `CNc1nc(-c2ccc(C(C)(C)C)cc2)ncc1C(=O)N[C@@H](CCN)C(=O)N(C)[C@@H]1C(=O)N[C@@H](C)C(=O)N[C@H](C(=O)NCC#N)Cc2ccc(OCCN)c(c2)-c2cc1ccc2OCCN`, the MIC turned out to be 0.007 µg/mL (≈ 0.00773 µM) in data set [1], 0.34 µg/mL (≈ 0.376 µM) against Escherichia coli [2] and 0.68 µg/mL in the data set on Escherichia coli [3].
The corresponding values for `Cc1nc(-c2ccc(C(C)(C)C)cc2)c(N)cc1C(=O)N[C@@H](CCN)C(=O)N(C)[C@@H]1C(=O)N[C@@H](C)C(=O)N[C@H](C(=O)NCC#N)Cc2ccc(OCCN)c(c2)-c2cc1ccc2OCCN` are 0.021 µg/mL (≈ 0.0232 µM), 0.34 µg/mL (≈ 0.376 µM) and 0.12 µg/mL.
